Source: patent publication US20250136568A1, “FUSED HETEROCYCLIC COMPOUNDS AS PI3KALPHA INHIBITORS” (Nanjing Zenshine Pharmaceuticals Co., Ltd., priority 2021, published 2025)
Like-named read-outs stand apart in the source and are kept apart here.

Assays:
[1] = system: PI3Kα H1047R mutation cell line T-47D; assay: Cell Proliferation IC50 Assay (CellTiter-Glo), T-47D; type: cell-based; conditions: T47D (H1047R), 72 hours, CellTiter-Glo, read-out: IC50 (μM) T47D
How it was run: (§1)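 Cells were seeded and left overnight, then exposed to serially diluted compound (200-fold final dilution) for 72 h at 37 °C, 5% CO2. Viability was read by CellTiter-Glo luminescence. Percent inhibition and IC50 were calculated from the signal.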

[2] = system: PI3Kα wide type cell line SK-BR-3; assay: Cell Proliferation IC50 Assay (CellTiter-Glo), SK-BR-3; type: cell-based; conditions: SK-BR-3 (PI3Kα wild type), 72 hours, CellTiter-Glo, read-out: IC50 (μM) SK-BR-3
How it was run: as §1

[3] = target: T1, PI3Kβ (Homo sapiens, UniProt P42338); assay: Selectivity study, p-AKT (Ser473) HTRF assay in 786-O cells; type: cell-based; conditions: 786-O cell, 1 hour incubation, serum-free medium
T1 construct: endogenous in cells; host or cells: 786-O
Procedure: The following day, the complete medium was replaced with serum-free medium, 3-fold serial diluted compound solution in serum-free medium was added to each well according to the plate map. After 1 hour incubation, removed cell supernatant carefully and added supplemented lysis buffer (1×) for 45 min. The lysate was transferred to a 384-well small volume white plate, the CisBio Phospho-AKT (Ser473) HTRF assay was performed as the manufacturer's directions (Cisbio, #64AKSPEG).

[4] = target: PI3Kα WT (Homo sapiens, UniProt P42336); assay: pAKT (S473) ELISA assay in WT cell line (SK-BR-3); type: cell-based; conditions: SK-BR-3 cells, two hours compound, IGF-1 50 ng/ml stimulation
Procedure: (§2) Cells were serum starved for 4 hours prior to compound treatment; compound solution was added to each well (3-fold serial dilution starting at desired concentration) for two hours in serum-free medium, followed by stimulation with IGF-1 for 60 minutes at a final concentration of 50 ng/ml as noted. After compound treatment and stimulation, discarded the supernatant and cells were lysed by cell lysis buffer (Cell Signaling Technology, #9803S). The lysate was transferred to the ELISA plate, the Phospho-AKT (Ser473) ELISA was performed as the manufacturer's directions (Cell Signaling Technology, #7160CA).

[5] = target: PI3Kα H1047R mutant (Homo sapiens, UniProt P42336, H1047R); assay: pAKT (S473) ELISA assay in PI3Kα H1047R mutant cell line (T47D); type: cell-based; conditions: T47D cells, two hours compound, IGF-1 50 ng/ml stimulation
Procedure: as §2

[6] = system: PI3Kα H1047R mutation cell line MDA-MB-453; assay: Cell Proliferation IC50 Assay (CellTiter-Glo), MDA-MB-453; type: cell-based; conditions: read-out: IC50 (μM) MDA-MB-453
How it was run: as §1

[7] = In vivo pharmacokinetics in mice; conditions: for clearance / bioavailability: male, CD1, mouse, plasma; for clearance: intravenous, 1 mg/kg; for bioavailability: oral, 5 mg/kg
Procedure: (§3) Dosing solutions were prepared at 0.5 mg/mL in 10% DMSO/10% HP—3-CD/80% water. A dosing solution was administered to Male CD1 mice (4-6 weeks, 20-30 g, 3 mice each group) via intravenous (TV) bolus at 1 mg/kg and by oral gavage (PO) at 5 mg/kg. The dose formulations were kept at room temperature and administrated within 30 mins for IV/PO. Blood samples (0.3 mL each time point) were collected into tubes containing ethylenediaminetetraacetic acid (K2EDTA) as the anticoagulant at 0, 0033, 0.083, 0.25, 05, 1, 2, 4, 8 and 24 hours post dose for IV administrated and 0, 0.083, 0.25, 0.5, 1, 2, 4, 8 and 24 hours post dose for PO administration. The blood sample were then centrifuged for 5 minutes in centrifuge refrigerated at 4° C. The samples were stored in a freezer at −75±15° C. prior to analysis. Concentrations of Compound in the plasma samples were analyzed using a LC-MS/MS method. WinNonlin (Phoenix™, version 8.3) or other similar software were used for pharmacokinetic calculations. The following pharmacokinetic parameters were calculated, whenever possible from the plasma concentration versus time data: MRT, Cmax, Tmax, AUClast, AUCinf, F %, Number of Points for Regression.

[8] = in vivo; conditions: male, CD1, mouse
Procedure: as §3

[9] = Homo sapiens, MDA-MB-453 (H1047R), 72 hours, CellTiter-Glo
[10] = CD1 mice, IV bolus at 1 mg/kg and PO at 5 mg/kg
[11] = MDA-MB-453 (H1047R), 72 hours, CellTiter-Glo

Chain of PI3Kα H1047R mutant (P42336 whole entry H1047R): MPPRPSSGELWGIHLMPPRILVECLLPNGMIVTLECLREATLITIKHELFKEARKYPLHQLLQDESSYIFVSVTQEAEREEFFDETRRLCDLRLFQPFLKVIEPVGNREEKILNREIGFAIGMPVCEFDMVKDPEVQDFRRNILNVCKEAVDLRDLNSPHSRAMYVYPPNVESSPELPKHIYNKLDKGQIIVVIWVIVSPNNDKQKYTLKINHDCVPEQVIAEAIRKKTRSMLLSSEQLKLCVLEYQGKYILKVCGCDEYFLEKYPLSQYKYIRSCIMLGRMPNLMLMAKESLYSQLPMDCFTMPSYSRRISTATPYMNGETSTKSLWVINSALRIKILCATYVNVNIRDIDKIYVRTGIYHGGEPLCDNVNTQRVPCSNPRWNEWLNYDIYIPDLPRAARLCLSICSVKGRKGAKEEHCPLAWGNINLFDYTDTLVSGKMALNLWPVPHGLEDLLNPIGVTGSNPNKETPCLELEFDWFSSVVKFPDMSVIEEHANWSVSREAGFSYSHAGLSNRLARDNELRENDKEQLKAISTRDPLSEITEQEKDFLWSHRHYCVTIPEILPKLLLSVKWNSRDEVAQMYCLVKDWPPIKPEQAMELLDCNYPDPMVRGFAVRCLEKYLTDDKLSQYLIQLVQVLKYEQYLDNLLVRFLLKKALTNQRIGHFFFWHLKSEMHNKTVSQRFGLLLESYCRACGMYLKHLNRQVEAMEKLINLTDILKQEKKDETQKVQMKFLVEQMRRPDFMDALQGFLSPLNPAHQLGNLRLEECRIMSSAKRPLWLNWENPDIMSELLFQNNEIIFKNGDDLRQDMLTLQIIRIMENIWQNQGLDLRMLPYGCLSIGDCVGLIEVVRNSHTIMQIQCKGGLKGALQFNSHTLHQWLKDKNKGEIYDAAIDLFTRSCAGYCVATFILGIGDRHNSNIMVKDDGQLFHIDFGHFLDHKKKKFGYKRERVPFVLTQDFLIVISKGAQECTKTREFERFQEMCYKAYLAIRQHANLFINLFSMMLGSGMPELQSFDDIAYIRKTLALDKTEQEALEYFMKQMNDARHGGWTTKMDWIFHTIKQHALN
Chain of PI3Kα H1047R mutant (P27986 whole entry partner): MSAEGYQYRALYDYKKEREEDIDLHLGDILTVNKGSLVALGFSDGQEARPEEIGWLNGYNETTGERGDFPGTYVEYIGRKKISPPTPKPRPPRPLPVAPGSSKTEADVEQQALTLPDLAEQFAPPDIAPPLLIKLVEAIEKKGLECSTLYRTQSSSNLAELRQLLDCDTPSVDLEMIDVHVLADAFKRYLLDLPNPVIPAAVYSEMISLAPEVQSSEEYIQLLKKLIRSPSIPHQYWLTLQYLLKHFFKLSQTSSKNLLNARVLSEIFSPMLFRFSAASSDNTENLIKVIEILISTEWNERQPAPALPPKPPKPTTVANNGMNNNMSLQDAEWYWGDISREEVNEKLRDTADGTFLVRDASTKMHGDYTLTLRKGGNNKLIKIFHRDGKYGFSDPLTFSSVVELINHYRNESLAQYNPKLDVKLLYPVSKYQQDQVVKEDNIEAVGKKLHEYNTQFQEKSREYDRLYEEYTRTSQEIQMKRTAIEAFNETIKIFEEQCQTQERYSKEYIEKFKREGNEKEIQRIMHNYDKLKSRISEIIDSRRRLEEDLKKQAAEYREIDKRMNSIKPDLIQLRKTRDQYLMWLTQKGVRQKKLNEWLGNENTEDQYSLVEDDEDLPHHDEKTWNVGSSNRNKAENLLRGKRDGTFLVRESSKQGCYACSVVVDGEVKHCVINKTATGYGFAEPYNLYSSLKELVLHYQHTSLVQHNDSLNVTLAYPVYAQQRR
T1 sequence (P42338 whole entry): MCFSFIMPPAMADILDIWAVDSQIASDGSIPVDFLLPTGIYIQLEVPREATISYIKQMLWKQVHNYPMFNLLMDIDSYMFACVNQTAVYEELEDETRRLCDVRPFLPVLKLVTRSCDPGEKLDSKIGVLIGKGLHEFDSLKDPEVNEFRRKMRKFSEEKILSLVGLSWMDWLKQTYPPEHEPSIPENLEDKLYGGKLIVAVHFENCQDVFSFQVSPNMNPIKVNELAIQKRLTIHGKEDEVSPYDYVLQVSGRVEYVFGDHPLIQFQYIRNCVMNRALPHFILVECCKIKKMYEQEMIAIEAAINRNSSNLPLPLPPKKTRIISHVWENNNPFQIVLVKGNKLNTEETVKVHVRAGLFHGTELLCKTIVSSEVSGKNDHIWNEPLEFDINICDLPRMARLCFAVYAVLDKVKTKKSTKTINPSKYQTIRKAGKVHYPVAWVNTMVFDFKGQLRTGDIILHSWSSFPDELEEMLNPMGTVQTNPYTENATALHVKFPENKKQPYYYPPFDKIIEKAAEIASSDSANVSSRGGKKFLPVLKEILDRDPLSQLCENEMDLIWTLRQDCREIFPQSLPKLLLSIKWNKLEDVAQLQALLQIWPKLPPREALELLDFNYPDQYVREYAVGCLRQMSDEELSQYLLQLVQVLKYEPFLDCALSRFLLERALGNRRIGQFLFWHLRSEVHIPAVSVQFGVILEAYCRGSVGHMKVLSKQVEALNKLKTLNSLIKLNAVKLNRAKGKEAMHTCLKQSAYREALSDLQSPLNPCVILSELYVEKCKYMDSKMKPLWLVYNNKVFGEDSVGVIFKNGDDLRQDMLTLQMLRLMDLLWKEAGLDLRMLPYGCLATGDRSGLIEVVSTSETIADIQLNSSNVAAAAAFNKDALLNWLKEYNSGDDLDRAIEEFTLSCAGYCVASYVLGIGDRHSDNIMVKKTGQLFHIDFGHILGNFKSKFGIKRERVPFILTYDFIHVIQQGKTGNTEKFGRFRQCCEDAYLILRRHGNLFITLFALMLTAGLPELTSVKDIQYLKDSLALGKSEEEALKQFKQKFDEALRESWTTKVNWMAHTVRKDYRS
T1 sequence (P27986 whole entry partner): as the sequence (P27986 whole entry partner) above
Chain of PI3Kα WT (P42336 whole entry): as the sequence (P42336 whole entry H1047R) above, with R1047H counted along it
Chain of PI3Kα WT (P27986 whole entry partner): as the sequence (P27986 whole entry partner) above

Molecule | IC50 ([1]; Homo sapiens, T47D, 72 h) [µM] | IC50 ([2]; Homo sapiens) [µM] | IC50 [3] [µM] | IC50 [4] [nM] | IC50 [5] [nM] | IC50 [6, 9] [µM] | further results
Cc1cc(C(C)Nc2ccc(Cl)nc2C(=O)O)c2oc(-c3ccc4nn(C)cc4c3)cc(=O)c2c1 (centres unmarked) [Example 110, 6-chloro-3-((1-(6-methyl-2-(2-methyl-2-indazol-5-yl)-4-oxo-4H-chromen-8-yl)ethyl)amino)picolinic acid] | 0.087 | > 10 | > 10 |  |  |  | 
Cc1cc(C(C)Nc2ccccc2C(=O)O)c2oc(-c3ccc(-c4cnn(C)c4)cc3)cc(=O)c2c1 (centres unmarked) [Example 95, 2-((1-(6-methyl-2-(4-(1-methyl-1H-pyrazol-4-yl)phenyl)-4-oxo-4H-chromen-8-yl)ethyl)amino)benzoic acid] |  |  | 1.22 |  |  |  | 
Cc1cc([C@@H](C)Nc2ccccc2C(=O)O)c2oc(-c3ccc(OCCN(C)C)cc3)c(C)c(=O)c2c1 [Example 140, (R)-2-((1-(2-(4-(2-(dimethylamino)ethoxy)phenyl)-3,6-dimethyl-4-oxo-41-chromen-8-yl)ethyl)amino)benzoic acid] | 0.041 | > 10 | > 10 | 2390 | 42.3 | 0.029 | 
Cc1cc([C@@H](C)Nc2ccccc2C(=O)O)c2oc(-c3ccc4nn(C)cc4c3)cc(=O)c2c1 (single isomer, unassigned) [Example 38B] | 0.04 | 8.5 | 0.545 | 1290 | 25 | 0.05 | clearance [7]: 34 mL/min/kg; bioavailability [7]: 45.5%
Cc1cc(C(C)Nc2ccccc2C(=O)O)c2oc(-c3cc(C)c4nn(C)cc4c3)cc(=O)c2c1 (centres unmarked) [Example 109, 2-((1-(2-(2,7-dimethyl-21-indazol-5-yl)-6-methyl-4-oxo-4H-chromen-8-yl)ethyl)amino)benzoic acid] | 0.22 | > 10 |  |  |  | 0.16 | 
Cc1cc([C@@H](C)Nc2ccccc2C(=O)O)c2oc(-c3ccc(CN4CCN(C)CC4)cc3)c(C)c(=O)c2c1 [Example 147, 2-[[(1R)-1-[3,6-dimethyl-2-[4-[(4-methylpiperazin-1-yl)methyl]phenyl]-4-oxo-chromen-8-yl]ethyl]amino]benzoic acid] |  | > 10 | > 10 | 6130 | 46.5 |  | IC50 ([1]; Homo sapiens): 0.055 µM; bioavailability [8]: 46.5%; clearance [8]: 10.9 mL/min/kg
Cc1cc(C(C)Nc2ccccc2C(=O)O)c2oc(C3CCN(C(=O)C(F)(F)F)CC3)cc(=O)c2c1 (centres unmarked) [Example 29, 2-((1-(6-methyl-4-oxo-2-(1-(2,2,2-trifluoroacetyl)piperidin-4-yl)-4H-chromen-8-yl)ethyl)amino)benzoic acid] | 4.13 | > 10 |  |  |  | > 10 | 
Cc1cc(C(C)Nc2ccccc2C(=O)O)c2oc(C3=CCN(c4ccccc4)CC3)cc(=O)c2c1 (centres unmarked) [Example 19, 2-((1-(6-methyl-4-oxo-2-(1-phenyl-1,2,3,6-tetrahydropyridin-4-yl)-4H-chromen-8-yl)ethyl)amino)benzoic acid] | 0.35 | > 10 |  |  |  | 1.39 | 
Cc1cc(C(C)Nc2ccccc2S(N)(=O)=O)c2oc(-c3ccc4nn(C)cc4c3)c(C)c(=O)c2c1 (centres unmarked) [Example 131, 2-((1-(3,6-dimethyl-2-(2-methyl-2H-indazol-5-yl)-4-oxo-4H-chromen-8-yl)ethyl)amino)benzenesulfonamide] |  | > 10 |  |  |  |  | IC50 ([1]; Homo sapiens): 0.055 µM; IC50 ([6]; Homo sapiens, MDA-MB-453, 72 h): 0.059 µM
CC(=O)N1CCN(c2ccc(-c3oc4c([C@@H](C)Nc5ccccc5C(=O)O)cc(C)cc4c(=O)c3C)cc2)CC1 (single isomer, unassigned) [Example 123A] | 0.076 | 5.6 | 6.46 | 1100 | 37 | 0.15 | 
(R)-2-((1-(6-methyl-2-(41-methyl-1H-pyrazol-4-yl)phenyl)-4-oxo-4H-chromen-8-yl)ethyl)amino)benzoic acid [Example 95A] |  |  |  | 1260 | 12 |  | IC50 [1]: 0.09 µM; IC50 [2]: > 10 µM; Cmax [7, 10]: 102 ng/mL; MRT [7, 10]: 7.64 h
C[C@@H](Nc1ccccc1C(=O)O)c1cc(Cl)cc2c(=O)cc(-c3ccc4nn(C)cc4c3)oc12 (single isomer, unassigned) [Example 98B] |  |  |  | 1340 | 19.5 |  | IC50 [1]: > 10 µM; IC50 [2]: > 10 µM; IC50 [6, 11]: > 10 µM
C[C@H](Nc1ccccc1C(=O)O)c1cc(Cl)cc2c(=O)cc(-c3ccc4nn(C)cc4c3)oc12 (single isomer, unassigned) [Example 98A] |  |  |  |  |  |  | IC50 [1]: 0.038 µM; IC50 [2]: > 10 µM; IC50 [6, 11]: 0.09 µM
Cc1cc([C@@H](C)Nc2ccccc2C(=O)O)c2oc(-c3ccc(CN4CCN(C)C(=O)C4)cc3)c(C)c(=O)c2c1 [Example 148, (R)-2-((1-(3,6-dimethyl-2-(4-((4-methyl-3-oxopiperazin-1-yl)methyl)phenyl)-4-oxo-4H-chromen-8-yl)ethyl)amino)benzoic acid] | 0.066 | > 10 | > 10 | 4340 | 48.5 |  | 
CC(=O)N1CCC(c2cc(=O)c3cc(C)cc(C(C)Nc4ccccc4C(=O)O)c3o2)CC1 (centres unmarked) [Example 28, 2-((1-(2-(1-acetylpiperidin-4-yl)-6-methyl-4-oxo-4H-chromen-8-yl)ethyl)amino)benzoic acid] | 1.77 | > 10 |  |  |  | 3.61 | 
Cc1cc(C(C)Nc2ccccc2C(=O)O)c2oc(-c3cnn(CC(C)(C)O)c3)cc(=O)c2c1 (centres unmarked) [Example 11, 2-((1-(2-(1-(2-hydroxy-2-methylpropyl)-1H-pyrazol-4-yl)-6-methyl-4-oxo-4H-chromen-8-yl)ethyl)amino)benzoic acid] | 1.98 | > 10 |  |  |  | 2.49 | 
Cc1cc([C@H](C)Nc2ccccc2C(=O)O)c2oc(-c3ccc4c(c3)CN(C)C4=O)c(C)c(=O)c2c1 (single isomer, unassigned) [Example 20A] | > 10 | > 10 |  |  |  | > 10 | 
Cc1ccc(-c2cc(=O)c3cc(C)cc(C(C)Nc4ccccc4C(=O)O)c3o2)cc1 (centres unmarked) [Example 2, 2-((1-(6-methyl-4-oxo-2-(p-tolyl)-4H-chromen-8-yl)ethyl)amino)benzoic acid] | 0.16 | > 10 |  |  |  | 0.39 | 
Cc1cc(C(C)Nc2ccccc2C(=O)O)c2oc(C3=CCN(C(=O)OC(C)(C)C)CC3)cc(=O)c2c1 (centres unmarked) [Example 14, 2-((1-(2-(1-(tert-butoxycarbonyl)-1,2,3,6-tetrahydropyridin-4-yl)-6-methyl-4-oxo-4H-chromen-8-yl)ethyl)amino)benzoic acid] | 1 | > 10 |  |  |  | 1.27 | 
Cc1cc([C@@H](C)Nc2ccccc2C(=O)O)c2oc(-c3ccc(-c4cnn(C)c4)nc3)c(C)c(=O)c2c1 [Example 150, (R)-2-((1-(3,6-dimethyl-2-(6-(1-methyl-H-pyrazol-4-yl)pyridin-3-yl)-4-oxo-41-chromen-8-yl)ethyl)amino)benzoic acid] | 0.064 | > 10 | > 10 | 2370 | 25 | 0.13 | clearance [7]: 3.75 mL/min/kg; bioavailability [7]: 58.2%
CC(Nc1ccccc1C(=O)O)c1cc(Cl)cc2c(=O)cc(-c3ccc4nn(C)cc4c3)oc12 (centres unmarked) [Example 98, 2-((1-(6-chloro-2-(2-methyl-2H-indazol-5-yl)-4-oxo-4H-chromen-8-yl)ethyl)amino)benzoic] |  |  | 1.15 |  |  |  | 
